Key:
Assay type in all cases: cell-based
[1] = target: T1, human S1PR5 (Homo sapiens, UniProt Q9H228); experiment: Intracellular Ca2+ release (FLIPR) agonist potency, S1P5; conditions: recombinant CHO-K1 cells expressing human S1PR5, aequorin, Gq/i5; Calcium 5 FLIPR; read-out: S1P5 EC50 range
T1 construct: host or cells: CHO-K1
Summary of the method: (§1)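 Agonist potency was determined from intracellular Ca2+ release in engineered CHO-K1 cells (human receptor, aequorin, Gq/i5) using FLIPR Tetra, with phospho-fingolimod as reference agonist for normalization.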

[2] = target: T2, human S1PR4 (Homo sapiens, UniProt O95977); experiment: Intracellular Ca2+ release (FLIPR) agonist potency, S1P4; conditions: recombinant CHO-K1 cells expressing human S1PR4, aequorin, Gq/i5; Calcium 5 FLIPR; read-out: S1P4 EC50
T2 construct: host or cells: CHO-K1
T2 sequence (O95977 1-384): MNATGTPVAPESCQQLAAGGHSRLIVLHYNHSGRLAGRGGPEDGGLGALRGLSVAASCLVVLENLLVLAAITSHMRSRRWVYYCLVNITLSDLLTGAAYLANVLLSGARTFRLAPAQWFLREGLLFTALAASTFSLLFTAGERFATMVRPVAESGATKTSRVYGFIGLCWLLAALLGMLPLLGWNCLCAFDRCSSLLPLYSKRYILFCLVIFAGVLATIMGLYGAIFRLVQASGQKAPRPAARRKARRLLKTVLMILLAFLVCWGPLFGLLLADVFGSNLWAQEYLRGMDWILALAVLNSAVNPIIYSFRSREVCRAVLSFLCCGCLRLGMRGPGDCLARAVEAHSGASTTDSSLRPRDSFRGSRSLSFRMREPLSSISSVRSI
Summary of the method: as §1

[3] = target: T3, human S1PR1 (Homo sapiens, UniProt P21453); experiment: Intracellular Ca2+ release (FLIPR) agonist potency, S1P1; conditions: recombinant CHO-K1 cells expressing human S1PR1, aequorin, Gq/i5; Calcium 5 FLIPR; read-out: S1P1 EC50
T3 construct: host or cells: CHO-K1
T3 sequence (P21453 whole entry): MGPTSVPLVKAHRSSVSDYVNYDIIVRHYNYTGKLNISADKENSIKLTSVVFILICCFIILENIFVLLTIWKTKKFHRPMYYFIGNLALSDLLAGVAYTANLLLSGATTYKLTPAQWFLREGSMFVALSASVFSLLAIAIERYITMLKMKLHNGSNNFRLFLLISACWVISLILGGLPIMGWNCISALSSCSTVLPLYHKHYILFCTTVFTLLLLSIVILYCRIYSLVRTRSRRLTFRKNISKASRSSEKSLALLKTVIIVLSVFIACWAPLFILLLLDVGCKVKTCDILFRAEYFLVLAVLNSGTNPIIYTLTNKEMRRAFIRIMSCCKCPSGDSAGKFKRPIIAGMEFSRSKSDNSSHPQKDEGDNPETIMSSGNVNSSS
Summary of the method: as §1

T1 sequence (Q9H228 whole entry): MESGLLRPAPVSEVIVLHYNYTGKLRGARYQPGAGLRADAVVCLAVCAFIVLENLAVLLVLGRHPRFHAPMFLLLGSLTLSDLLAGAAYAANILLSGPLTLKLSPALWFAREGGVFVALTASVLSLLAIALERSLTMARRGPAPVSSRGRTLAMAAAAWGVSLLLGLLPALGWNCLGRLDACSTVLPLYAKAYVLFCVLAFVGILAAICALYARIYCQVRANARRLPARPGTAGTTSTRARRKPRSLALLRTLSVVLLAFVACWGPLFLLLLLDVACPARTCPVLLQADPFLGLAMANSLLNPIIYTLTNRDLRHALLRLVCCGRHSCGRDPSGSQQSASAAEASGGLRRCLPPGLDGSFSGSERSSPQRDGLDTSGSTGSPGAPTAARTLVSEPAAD

Row | SMILES | EC50 [1] [nM] | EC50 [2] [nM] | EC50 [3] [nM]
1 | O=C(O)CCOC1CCc2cc(OCc3cccc(Cl)c3Cl)ccc2C1 (stereo not drawn) [Compound 189, 3-[6-[(2,3-dichlorophenyl)methoxy]tetralin-2-yl]oxypropanoic acid] | 1000 to 10000 | > 1000 | > 1000
2 | O=C(O)CCOC1CCc2cc(OCc3ccccc3OC(F)(F)F)ccc2C1 (stereo not drawn) [Compound 190, 3-[6-[[2-(trifluoromethoxy)phenyl]methoxy]tetralin-2-yl]oxypropanoic acid] | 1000 to 10000 | > 1000 | > 1000
3 | O=C(O)CCOC1CCc2cc(OCc3ccc(Cl)cc3)ccc2C1 (stereo not drawn) [Compound 191, 3-[6-[(4-chlorophenyl)methoxy]tetralin-2-yl]oxypropanoic acid] | 1000 to 10000 | > 1000 | > 1000
4 | CC(C)(C)c1ccc(COc2ccc3c(c2)CCC(OCCC(=O)O)C3)cc1 (stereo not drawn) [Compound 192, 3-[6-[(4-tert-butylphenyl)methoxy]tetralin-2-yl]oxypropanoic acid] | 1000 to 10000 | > 1000 | > 1000
5 | O=C(O)CCOC1CCc2cc(OCc3ccc(F)cc3)ccc2C1 (stereo not drawn) [Compound 194, 3-[6-[(4-fluorophenyl)methoxy]tetralin-2-yl]oxypropanoic acid] | 1000 to 10000 | > 1000 | > 1000
6 | Cc1ccc(C(F)(F)F)c(COc2ccc3c(c2)CCC(OCC(=O)O)C3)c1 (stereo not drawn) [Compound 195, 2-[6-[[5-methyl-2-(trifluoromethyl)phenyl]methoxy]tetralin-2-yl]oxyacetic acid] | 1000 to 10000 | > 1000 | > 1000
7 | O=C(O)COC1CCc2cc(OCc3ccccc3C(F)(F)F)ccc2C1 (stereo not drawn) [Compound 196, 2-[6-[[2-(trifluoromethyl)phenyl]methoxy]tetralin-2-yl]oxyacetic acid] | 100 to 1000 | > 1000 | > 1000
8 | O=C(O)COC1CCc2cc(OCc3cccc(F)c3)ccc2C1 (stereo not drawn) [Compound 198, 2-[6-[(3-fluorophenyl)methoxy]tetralin-2-yl]oxyacetic acid] | 1000 to 10000 | > 1000 | > 1000
9 | O=C(O)COC1CCc2cc(OCc3ccc(Cl)c(Cl)c3)ccc2C1 (stereo not drawn) [Compound 199, 2-[6-[(3,4-dichlorophenyl)methoxy]tetralin-2-yl]oxyacetic acid] | 1000 to 10000 | > 1000 | > 1000
10 | Cc1c(COc2ccc3c(c2)CCC(OCC(=O)O)C3)cccc1C(F)(F)F (stereo not drawn) [Compound 200, 2-[6-[[2-methyl-3-(trifluoromethyl)phenyl]methoxy]tetralin-2-yl]oxyacetic acid] | 1000 to 10000 | > 1000 | > 1000
11 | CSc1ccc(COc2ccc3c(c2)CCC(OCC(=O)O)C3)cc1 (stereo not drawn) [Compound 201, 2-[6-[(4-methylsulfanylphenyl)methoxy]tetralin-2-yl]oxyacetic acid] | 1000 to 10000 | > 1000 | > 1000
12 | O=C(O)COC1CCc2cc(OCc3ccc(OC(F)(F)F)cc3)ccc2C1 (stereo not drawn) [Compound 203, 2-[6-[[4-(trifluoromethoxy)phenyl]methoxy]tetralin-2-yl]oxyacetic acid] | 1000 to 10000 | > 1000 | > 1000
13 | O=C(O)COC1CCc2cc(OCc3cccc(F)c3F)ccc2C1 (stereo not drawn) [Compound 204, 2-[6-[(2,3-difluorophenyl)methoxy]tetralin-2-yl]oxyacetic acid] | 1000 to 10000 | > 1000 | > 1000
14 | O=C(O)COC1CCc2cc(OCc3cccc(Cl)c3)ccc2C1 (stereo not drawn) [Compound 205, 2-[6-[(3-chlorophenyl)methoxy]tetralin-2-yl]oxyacetic acid] | 100 to 1000 | > 1000 | > 1000
15 | O=C(O)COC1CCc2cc(OCc3ccccc3Cl)ccc2C1 (stereo not drawn) [Compound 206, 2-[6-[(2-chlorophenyl)methoxy]tetralin-2-yl]oxyacetic acid] | 1000 to 10000 | > 1000 | > 1000
16 | O=C(O)COC1CCc2cc(OCc3ccccc3OC(F)(F)F)ccc2C1 (stereo not drawn) [Compound 208, 2-[6-[[2-(trifluoromethoxy)phenyl]methoxy]tetralin-2-yl]oxyacetic] | 100 to 1000 | > 1000 | > 1000

The remaining lines, values ahead:

Row | EC50 [1] [nM] | EC50 [2] [nM] | EC50 [3] [nM] | SMILES
17 | 1000 to 10000 | > 1000 | > 1000 | O=C(O)COC1CCc2cc(OCc3ccc(Cl)cc3)ccc2C1 (stereo not drawn) [Compound 209, 2-[6-[(4-chlorophenyl)methoxy]tetralin-2-yl]oxyacetic acid]
18 | 1000 to 10000 | > 1000 | > 1000 | O=C(O)COC1CCc2cc(OCc3ccc(F)c(F)c3)ccc2C1 (stereo not drawn) [Compound 212, 2-[6-[(3,4-difluorophenyl)methoxy]tetralin-2-yl]oxyacetic acid]
19 | 1000 to 10000 | > 1000 | > 1000 | O=C(O)COC1CCc2cc(OCc3ccc(F)cc3)ccc2C1 (stereo not drawn) [Compound 214, 2-[6-[(4-fluorophenyl)methoxy]tetralin-2-yl]oxyacetic acid]
20 | 100 to 1000 | > 1000 | > 1000 | CCc1cccc(Cl)c1COc1ccc2c(c1)CCC(N1CC(C(=O)N(C)OC)C1)C2 (stereo not drawn) [Compound 217, 1-[6-[(2-chloro-6-ethyl-phenyl)methoxy]tetralin-2-yl]-N-methoxy-N-methyl-azetidine-3-carboxamide]
21 | 10 to 100 | > 1000 | > 1000 | O=C(O)C1CN(C2COc3cc(OCc4c(Cl)cccc4Cl)c(Br)cc3C2)C1 (stereo not drawn) [Compound 221, 1-[6-bromo-7-[(2,6-dichlorophenyl)methoxy]chroman-3-yl]azetidine-3-carboxylic acid]
22 | 10 to 100 | > 1000 | > 1000 | Cc1cc2c(cc1OCc1c(Cl)cccc1Cl)OCC(N1CC(C(=O)O)C1)C2 (stereo not drawn) [Compound 222, 1-[7-[(2,6-dichlorophenyl)methoxy]-6-methyl-chroman-3-yl]azetidine-3-carboxylic acid]
23 | < 10 | > 1000 | > 1000 | O=C(O)C1CN(C2CCOc3cc(OCc4c(Cl)cccc4Cl)c(F)cc32)C1 (stereo not drawn) [Compound 223, 1-[7-[(2,6-dichlorophenyl)methoxy]-6-fluoro-chroman-4-yl]azetidine-3-carboxylic acid]
24 | 1000 to 10000 | > 1000 | > 1000 | O=C(O)C1CN(C2COc3c(cccc3OCc3c(Cl)cccc3Cl)C2)C1 (stereo not drawn) [Compound 225, 1-[8-[(2,6-dichlorophenyl)methoxy]chroman-3-yl]azetidine-3-carboxylic acid]
25 | 1000 to 10000 | > 1000 | > 1000 | O=C(O)C1CN(C2COc3cc(OCCc4ccccc4)ccc3C2)C1 (stereo not drawn) [Compound 226, 1-(7-phenethyloxychroman-3-yl)azetidine-3-carboxylic acid]
26 | 1000 to 10000 | > 1000 | > 1000 | O=C(O)C1CN(C2COc3cc(OCCc4ccccc4Cl)ccc3C2)C1 (stereo not drawn) [Compound 227, 1-[7-[2-(2-chlorophenyl)ethoxy]chroman-3-yl]azetidine-3-carboxylic acid]
27 | 1000 to 10000 | > 1000 | > 1000 | O=C(O)C1CN(C2COc3cc(OCCc4ccc(Cl)cc4)ccc3C2)C1 (stereo not drawn) [Compound 228, 1-[7-[2-(4-chlorophenyl)ethoxy]chroman-3-yl]azetidine-3-carboxylic acid]
28 | 1000 to 10000 | > 1000 | > 1000 | O=C(O)C1CN(C2COc3cc(Oc4c(Cl)cccc4Cl)ccc3C2)C1 (stereo not drawn) [Compound 229, 1-[7-(2,6-dichlorophenoxy)chroman-3-yl]azetidine-3-carboxylic acid]
29 | 1000 to 10000 | > 1000 | > 1000 | O=C(O)C1CN(C2COc3cc(OCC4CCC4)ccc3C2)C1 (stereo not drawn) [Compound 230, 1-[7-(cyclobutylmethoxy)chroman-3-yl]azetidine-3-carboxylic acid]
30 | 1000 to 10000 | > 1000 | > 1000 | O=C(O)C1CN(C2COc3cc(OCC4CC4)ccc3C2)C1 (stereo not drawn) [Compound 231, 1-[7-(cyclopropylmethoxy)chroman-3-yl]azetidine-3-carboxylic acid]
31 | < 10 | > 1000 | > 1000 | CCc1cccc(Cl)c1COc1ccc2c(c1)OCC(OCC(=O)O)C2 (stereo not drawn) [Compound 233, ((7-((2-chloro-6-ethylbenzyl)oxy)chroman-3-yl)oxy)acetic acid]
32 | 1000 to 10000 | > 1000 | > 1000 | O=C(O)COC1COc2cc(OCc3c(F)ccc(Cl)c3F)ccc2C1 (stereo not drawn) [Compound 234, 2-((7-((3-chloro-2,6-difluorobenzyl)oxy)chroman-3-yl)oxy)acetic acid]
33 | < 10 | > 1000 | > 1000 | O=C(O)CNC1COc2cc(-c3ccc(OCc4ccccc4)cc3)ccc2C1 (stereo not drawn) [Compound 237, 2-((7-(4-(benzyloxy)phenyl)chroman-3-yl)amino)acetic acid]
